Experimental data published in ChEMBL document CHEMBL1129317, “Novel selective and partial agonists of 5-HT3 receptors. Part 1. Synthesis and biological evaluation of piperazinopyrrolothienopyrazines” (J Med Chem, 1996).

Tests used:
[1] = molecular target: Glutamate receptor ionotropic kainate (Homo sapiens) (UniProt P39086+Q16478+Q16099+Q13002+Q13003); test: Inhibitory activity against Ionotropic glutamate receptor kainate using [3H]- Kainate at […] (M); assay type: protein-complex assay
[2] = Inhibitory activity against Gamma-aminobutyric acid type B receptor using [3H]GABA at 10e-5 M
[3] = Inhibition of [3H]batrachotoxin binding to sodium channel at 10e-7 M
[4] = molecular target: Beta-1 adrenergic receptor (Homo sapiens) (UniProt P08588); test: Inhibitory activity against Beta-1 adrenergic receptor using [3H]CGP-12177 at 10e-5 (M)
Sequence of Beta-1 adrenergic receptor (Homo sapiens) (P08588 whole entry, looked up): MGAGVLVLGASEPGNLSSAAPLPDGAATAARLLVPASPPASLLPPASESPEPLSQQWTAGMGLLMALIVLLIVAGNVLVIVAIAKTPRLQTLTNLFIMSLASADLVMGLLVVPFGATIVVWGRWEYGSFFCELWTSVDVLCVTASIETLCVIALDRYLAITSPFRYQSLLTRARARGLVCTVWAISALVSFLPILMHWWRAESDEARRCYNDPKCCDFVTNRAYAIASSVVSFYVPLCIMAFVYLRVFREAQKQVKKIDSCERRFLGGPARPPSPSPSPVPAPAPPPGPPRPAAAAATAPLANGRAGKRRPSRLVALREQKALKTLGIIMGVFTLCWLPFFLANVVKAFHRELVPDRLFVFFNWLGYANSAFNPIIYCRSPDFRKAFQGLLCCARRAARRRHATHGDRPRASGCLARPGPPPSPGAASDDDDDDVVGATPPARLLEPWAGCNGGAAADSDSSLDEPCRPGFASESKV

[5] = molecular target: Mu-type opioid receptor (Homo sapiens) (UniProt P35372); test: Inhibitory activity against Opioid receptor mu 1 using [3H]DAMGO at 10e-5 (M)
Sequence of Mu-type opioid receptor (Homo sapiens) (P35372 whole entry): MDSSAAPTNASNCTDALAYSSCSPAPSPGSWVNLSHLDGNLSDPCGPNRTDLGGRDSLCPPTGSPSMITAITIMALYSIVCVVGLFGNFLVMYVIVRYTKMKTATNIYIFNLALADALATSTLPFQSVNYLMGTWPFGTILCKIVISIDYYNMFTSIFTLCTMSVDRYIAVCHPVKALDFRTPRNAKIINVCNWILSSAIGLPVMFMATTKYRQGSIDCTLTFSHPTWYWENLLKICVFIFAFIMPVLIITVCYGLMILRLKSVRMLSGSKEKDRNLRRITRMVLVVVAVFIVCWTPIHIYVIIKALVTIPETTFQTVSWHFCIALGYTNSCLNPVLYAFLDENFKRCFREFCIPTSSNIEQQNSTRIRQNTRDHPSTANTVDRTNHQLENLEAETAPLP

[6] = molecular target: Muscarinic acetylcholine receptor M3 (Homo sapiens) (UniProt P20309); test: Inhibitory activity against Muscarinic acetylcholine receptor M3 using [3H]NMS at […] (M)
[7] = molecular target: Tumor necrosis factor receptor superfamily member 1A (Homo sapiens) (UniProt P19438); test: Inhibitory activity against TNF using [125]TNF at 10e-5 (M)
Sequence of Tumor necrosis factor receptor superfamily member 1A (Homo sapiens) (P19438 whole entry): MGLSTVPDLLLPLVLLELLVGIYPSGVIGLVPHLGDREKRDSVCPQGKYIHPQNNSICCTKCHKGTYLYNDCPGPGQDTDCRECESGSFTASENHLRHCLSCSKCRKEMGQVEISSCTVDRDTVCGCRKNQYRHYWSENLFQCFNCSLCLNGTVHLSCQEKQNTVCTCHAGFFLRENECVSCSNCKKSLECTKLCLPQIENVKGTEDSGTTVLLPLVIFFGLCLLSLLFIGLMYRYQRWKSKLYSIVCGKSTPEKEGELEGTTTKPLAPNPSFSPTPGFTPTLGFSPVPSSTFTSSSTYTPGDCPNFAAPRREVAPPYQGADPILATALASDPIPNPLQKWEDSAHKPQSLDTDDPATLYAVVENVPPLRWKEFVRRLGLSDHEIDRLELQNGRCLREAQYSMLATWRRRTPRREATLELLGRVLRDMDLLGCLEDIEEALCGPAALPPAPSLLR

[8] = molecular target: Beta-2 adrenergic receptor (Homo sapiens) (UniProt P07550); test: Inhibitory activity against Beta-2 adrenergic receptor using [3H]CGP-12177 at […] (M)
Sequence of Beta-2 adrenergic receptor (Homo sapiens) (P07550 whole entry, looked up): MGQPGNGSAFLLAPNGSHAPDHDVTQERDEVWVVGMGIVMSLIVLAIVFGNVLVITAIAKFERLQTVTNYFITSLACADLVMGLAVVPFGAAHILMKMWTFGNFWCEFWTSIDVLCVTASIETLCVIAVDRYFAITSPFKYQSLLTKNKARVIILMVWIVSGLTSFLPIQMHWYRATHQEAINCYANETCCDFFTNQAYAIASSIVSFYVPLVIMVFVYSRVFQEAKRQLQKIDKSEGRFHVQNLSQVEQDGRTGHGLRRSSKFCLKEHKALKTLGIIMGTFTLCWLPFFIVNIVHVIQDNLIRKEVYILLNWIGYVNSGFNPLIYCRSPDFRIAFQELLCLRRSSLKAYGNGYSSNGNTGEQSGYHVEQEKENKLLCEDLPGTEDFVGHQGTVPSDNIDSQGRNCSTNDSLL

[9] = molecular target: T1, Serotonin 3 (5-HT3) receptor (Rattus norvegicus) (UniProt P35563+Q9JJ16); test: Antagonistic activity of compound towards 5-hydroxytryptamine 3 receptor in Von Bezold-Jarisch reflex in rats at 60 (ug/kg), evaluated as percent inhibition of bradycardia; assay type: functional
[10] = molecular target: Insulin receptor (Homo sapiens) (UniProt P06213); test: Displacement of [3H]insulin from Insulin receptor at 10e-5 M
Sequence of Insulin receptor (Homo sapiens) (P06213 28-758 limits assumed): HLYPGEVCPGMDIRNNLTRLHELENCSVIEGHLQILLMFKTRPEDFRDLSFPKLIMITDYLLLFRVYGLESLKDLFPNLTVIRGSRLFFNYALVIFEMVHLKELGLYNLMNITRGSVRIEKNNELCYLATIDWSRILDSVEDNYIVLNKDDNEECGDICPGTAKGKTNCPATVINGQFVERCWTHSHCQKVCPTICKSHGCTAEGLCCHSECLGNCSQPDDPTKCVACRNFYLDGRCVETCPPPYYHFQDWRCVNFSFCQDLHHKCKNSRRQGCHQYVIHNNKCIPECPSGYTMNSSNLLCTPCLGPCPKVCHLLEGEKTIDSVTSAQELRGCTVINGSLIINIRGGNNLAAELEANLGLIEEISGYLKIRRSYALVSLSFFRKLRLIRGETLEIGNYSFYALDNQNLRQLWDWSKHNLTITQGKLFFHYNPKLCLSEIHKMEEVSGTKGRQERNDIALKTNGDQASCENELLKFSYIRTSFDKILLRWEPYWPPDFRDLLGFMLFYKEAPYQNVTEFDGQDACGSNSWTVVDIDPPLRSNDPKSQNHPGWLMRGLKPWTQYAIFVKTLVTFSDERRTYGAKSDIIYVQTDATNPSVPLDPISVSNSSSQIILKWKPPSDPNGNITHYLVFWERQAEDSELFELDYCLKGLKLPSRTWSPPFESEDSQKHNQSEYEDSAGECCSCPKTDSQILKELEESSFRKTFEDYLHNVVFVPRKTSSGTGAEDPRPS
Sequence of Insulin receptor (Homo sapiens) (P06213 763-1382 limits assumed): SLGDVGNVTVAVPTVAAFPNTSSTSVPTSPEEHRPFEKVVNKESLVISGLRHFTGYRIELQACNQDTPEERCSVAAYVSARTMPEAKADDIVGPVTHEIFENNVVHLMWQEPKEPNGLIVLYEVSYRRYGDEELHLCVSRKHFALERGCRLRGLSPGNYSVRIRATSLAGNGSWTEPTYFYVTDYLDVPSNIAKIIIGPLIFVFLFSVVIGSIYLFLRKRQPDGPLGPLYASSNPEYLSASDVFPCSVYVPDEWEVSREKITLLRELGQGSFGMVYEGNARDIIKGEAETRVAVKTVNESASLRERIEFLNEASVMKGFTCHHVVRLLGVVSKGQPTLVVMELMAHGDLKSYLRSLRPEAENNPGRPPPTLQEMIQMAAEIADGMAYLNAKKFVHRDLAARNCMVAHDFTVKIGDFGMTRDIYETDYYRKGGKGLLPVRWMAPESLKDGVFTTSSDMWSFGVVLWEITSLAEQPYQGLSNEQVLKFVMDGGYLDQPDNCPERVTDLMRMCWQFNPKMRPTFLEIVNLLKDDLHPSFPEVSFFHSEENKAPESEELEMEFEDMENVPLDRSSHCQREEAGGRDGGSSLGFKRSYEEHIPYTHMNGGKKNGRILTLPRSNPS

[11] = molecular target: Interleukin-1 receptor type 1 (Homo sapiens) (UniProt P14778); test: Inhibitory activity against Interleukin 1d using [3H]IL-1-alpha at […] (M)
[12] = molecular target: Cholecystokinin receptor type A (Homo sapiens) (UniProt P32238); test: Inhibitory activity against Cholecystokinin type A receptor using [3H]L-364718 at […] (M)
[13] = molecular target: 5-hydroxytryptamine receptor 1B (Rattus norvegicus, UniProt P28564); test: Binding affinity for 5-hydroxytryptamine 1B receptor
[14] = molecular target: Thyrotropin-releasing hormone receptor (Homo sapiens) (UniProt P34981); test: Inhibitory activity against TRH using [3H]TRH at 10e-5 (M)
[15] = molecular target: Leukotriene B4 receptor 1 (Homo sapiens) (UniProt Q15722); test: Inhibitory activity against Leukotriene B4 receptor using [3H]- LTB4 at […] (M)
Sequence of Leukotriene B4 receptor 1 (Homo sapiens) (Q15722 whole entry): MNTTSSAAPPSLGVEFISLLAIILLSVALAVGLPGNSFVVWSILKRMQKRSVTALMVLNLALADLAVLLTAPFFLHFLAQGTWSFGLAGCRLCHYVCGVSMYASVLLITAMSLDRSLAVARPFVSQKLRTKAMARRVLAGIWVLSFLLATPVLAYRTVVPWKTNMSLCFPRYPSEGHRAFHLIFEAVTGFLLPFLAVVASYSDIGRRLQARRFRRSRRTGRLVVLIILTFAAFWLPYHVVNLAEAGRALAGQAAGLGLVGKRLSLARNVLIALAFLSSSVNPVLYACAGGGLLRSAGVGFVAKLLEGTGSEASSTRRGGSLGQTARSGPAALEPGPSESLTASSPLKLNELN

[16] = molecular target: Glutamate [NMDA] receptor (Homo sapiens) (UniProt Q05586+Q12879+Q13224+O15399+O60391+Q14957+Q8TCU5); test: Inhibitory activity against NMDA using [3H]CGS-19,755 at […] (M); assay type: protein-complex assay
[17] = molecular target: Muscarinic acetylcholine receptor M2 (Homo sapiens) (UniProt P08172); test: Inhibitory activity against Muscarinic acetylcholine receptor M2 using [3H]NMS at […] (M)
[18] = molecular target: T1, Serotonin 3 (5-HT3) receptor (Rattus norvegicus); test: Agonistic activity of compound towards 5-hydroxytryptamine 3 receptor in Von Bezold-Jarisch Reflex in rats at 60 (ug/kg), evaluated as change in heart rate; assay type: functional
[19] = molecular target: Adrenergic receptor alpha-2 (Homo sapiens) (UniProt P08913+P18825+P18089); test: Inhibitory activity against Alpha-2 adrenergic receptor using [3H]RX-821002 at 10e-5 (M); assay type: protein assay
[20] = molecular target: T2, GABA-A receptor; anion channel (Homo sapiens) (UniProt P14867+P47870+P18507+P28472+P48169+Q99928+Q9UN88+P34903+O00591+O14764+Q8N1C3+P18505+P78334+P47869+P31644+Q16445); test: Inhibitory activity against Gamma-aminobutyric acid A (GABA-A) receptor using [3H]-muscimol at 10e-5 M; assay type: protein-complex assay
[21] = molecular target: Kappa-type opioid receptor (Homo sapiens) (UniProt P41145); test: Inhibitory activity against Opioid receptor kappa 1 using [3H]U-69593 at 10e-7 (M)
Sequence of Kappa-type opioid receptor (Homo sapiens) (P41145 whole entry): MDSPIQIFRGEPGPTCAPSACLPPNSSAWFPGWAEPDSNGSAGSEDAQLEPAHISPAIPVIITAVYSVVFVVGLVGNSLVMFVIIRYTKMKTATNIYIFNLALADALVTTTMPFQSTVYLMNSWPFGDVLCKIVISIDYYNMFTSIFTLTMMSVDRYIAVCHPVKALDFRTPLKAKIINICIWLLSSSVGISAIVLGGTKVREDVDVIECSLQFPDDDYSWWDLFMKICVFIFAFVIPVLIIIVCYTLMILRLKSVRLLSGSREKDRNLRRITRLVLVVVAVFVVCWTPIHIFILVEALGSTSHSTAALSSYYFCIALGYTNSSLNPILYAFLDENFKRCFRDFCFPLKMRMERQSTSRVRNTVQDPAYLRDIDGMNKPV

[22] = molecular target: T3, 5-hydroxytryptamine receptor 2C (Homo sapiens, UniProt P28335); test: Binding affinity towards 5-hydroxytryptamine 2C receptor
T3 sequence (P28335 whole entry): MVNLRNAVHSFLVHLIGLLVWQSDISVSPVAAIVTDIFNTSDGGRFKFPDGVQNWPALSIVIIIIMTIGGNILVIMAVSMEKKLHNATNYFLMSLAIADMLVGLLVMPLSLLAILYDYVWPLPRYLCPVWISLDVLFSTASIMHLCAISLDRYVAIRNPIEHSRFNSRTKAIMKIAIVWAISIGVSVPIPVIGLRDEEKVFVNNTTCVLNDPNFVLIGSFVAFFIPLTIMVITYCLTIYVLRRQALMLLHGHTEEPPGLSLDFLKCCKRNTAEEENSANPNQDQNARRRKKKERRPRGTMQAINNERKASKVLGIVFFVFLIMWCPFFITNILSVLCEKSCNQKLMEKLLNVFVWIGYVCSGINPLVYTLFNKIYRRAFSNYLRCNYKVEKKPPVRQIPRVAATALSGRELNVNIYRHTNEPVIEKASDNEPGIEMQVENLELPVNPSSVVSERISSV

[23] = molecular target: Muscarinic acetylcholine receptor M1 (Homo sapiens) (UniProt P11229); test: Inhibitory activity against Muscarinic acetylcholine receptor M1 using [3H]pirenzepine at […] (M)
[24] = molecular target: Thromboxane A2 receptor (Homo sapiens) (UniProt P21731); test: Inhibitory activity against Thromboxane A2 using [3H]SG-29548 at 10e-5 (M)
[25] = molecular target: D(2) dopamine receptor (Homo sapiens) (UniProt P14416); test: In vitro displacement from Dopamine receptor D2; details: concentration not given here
[26] = molecular target: Angiotensin II receptor (Homo sapiens) (UniProt P30556+P50052); test: Inhibitory activity against Angiotensin II receptor using [3H]Angiotensin II at […] (M); assay type: protein assay
[27] = Inhibition of [3H]apamin binding to Potassium channel at 10e-5 M
[28] = molecular target: T2, GABA-A receptor; anion channel (Homo sapiens); test: Inhibition of [3H]flunitrazepam binding to GABA-A central Benzodiazepine receptor at 10e-5 M; assay type: protein-complex assay
[29] = molecular target: T1, Serotonin 3 (5-HT3) receptor (Rattus norvegicus); test: Agonistic activity of compound towards 5-hydroxytryptamine 3 receptor in Von Bezold-Jarisch Reflex in rats at 120 (ug/kg), evaluated as change in heart rate; assay type: functional
[30] = molecular target: 5-hydroxytryptamine receptor 2A (Bos taurus, UniProt Q75Z89); test: Binding affinity towards 5-hydroxytryptamine 2A receptor
Sequence of 5-hydroxytryptamine receptor 2A (Q75Z89 whole entry): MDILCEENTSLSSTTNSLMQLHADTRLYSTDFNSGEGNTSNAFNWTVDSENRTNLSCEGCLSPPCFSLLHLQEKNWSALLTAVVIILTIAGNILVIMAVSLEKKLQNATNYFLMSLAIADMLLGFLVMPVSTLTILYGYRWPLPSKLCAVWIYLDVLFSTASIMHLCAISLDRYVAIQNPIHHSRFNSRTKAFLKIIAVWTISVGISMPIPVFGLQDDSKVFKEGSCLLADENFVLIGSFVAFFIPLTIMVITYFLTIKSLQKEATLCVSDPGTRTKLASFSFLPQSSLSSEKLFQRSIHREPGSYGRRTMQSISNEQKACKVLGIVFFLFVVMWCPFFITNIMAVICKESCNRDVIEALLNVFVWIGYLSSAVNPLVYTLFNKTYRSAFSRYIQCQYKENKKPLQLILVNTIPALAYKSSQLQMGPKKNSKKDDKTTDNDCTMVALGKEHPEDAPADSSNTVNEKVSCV

[31] = molecular target: Gastrin/cholecystokinin type B receptor (Homo sapiens) (UniProt P32239); test: Inhibitory activity against Cholecystokinin type B receptor using [3H]CCK-8 at […] (M)
Sequence of Gastrin/cholecystokinin type B receptor (Homo sapiens) (P32239 whole entry): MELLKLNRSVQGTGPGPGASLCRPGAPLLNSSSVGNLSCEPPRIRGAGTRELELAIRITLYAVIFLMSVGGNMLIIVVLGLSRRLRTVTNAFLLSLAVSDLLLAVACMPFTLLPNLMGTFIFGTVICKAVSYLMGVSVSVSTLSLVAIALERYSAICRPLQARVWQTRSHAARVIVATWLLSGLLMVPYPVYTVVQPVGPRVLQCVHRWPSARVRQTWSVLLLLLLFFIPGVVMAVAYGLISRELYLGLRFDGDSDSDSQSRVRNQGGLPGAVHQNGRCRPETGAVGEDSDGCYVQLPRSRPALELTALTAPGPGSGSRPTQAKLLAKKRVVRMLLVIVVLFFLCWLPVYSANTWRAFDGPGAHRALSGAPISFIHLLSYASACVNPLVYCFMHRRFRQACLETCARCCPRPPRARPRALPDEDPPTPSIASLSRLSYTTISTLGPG

[32] = molecular target: Kappa-type opioid receptor (Homo sapiens) (UniProt P41145); test: Inhibitory activity against Opioid receptor kappa 1 using [3H]U-69593 at 10e-5 (M)
[33] = molecular target: D(1A) dopamine receptor (Homo sapiens) (UniProt P21728); test: Inhibitory activity against Dopamine receptor D1 using [3H]SCH-23,390 at […] (M)

With c1ccc(CN2CCN(c3nc4ccsc4n4cccc34)CC2)cc1 the inhibition [1] was 12%, the inhibition [2] was 40% and the inhibition [3] was 28%. For the same compound, the inhibition [4] was 21%, the inhibition [5] was 29% and the inhibition [6] was 20%. The inhibition [7] was 7%, the inhibition [8] was 19% and the Change [9] was 40%. It also gave an inhibition [10] of 15%, an inhibition [11] of 1% and an inhibition [12] of 7%. The IC50 [13] was 1020 nM, the inhibition [14] was 12% and the inhibition [15] was 17%. For the same compound, the inhibition [16] was 19%, the inhibition [17] was 5% and the Change [18] was 0%. The inhibition [19] was 29%, the inhibition [20] was 31% and the inhibition [21] was 10%. The IC50 [22] was 1860 nM, the inhibition [23] was 29% and the inhibition [24] was 32%. For the same compound, the inhibition [25] was 5%, the inhibition [26] was 18% and the inhibition [27] was 6%. It also gave an inhibition [28] of 5%, a Change [29] of 42% and an IC50 [30] of 4370 nM. The inhibition [31] was 18%, the inhibition [32] was 55% and the inhibition [33] was 14%.
